Legend:
[1] = Cell viability, sulforhodamine B assay; format: cell-based; conditions: human, CCD 841 CoN colon epithelial cells (non-tumoral cell line), 72 h exposure, dilutions 12.5 to 100 μM, non-tumor cell line, read-out: Cytotoxicity IC50, CoN
Protocol: (§1) The cytotoxicity of compounds 1–12 was evaluated in vitro against different cancer cell lines: MCF-7 breast cancer, DU-145 and PC-3 human prostate cancer, and one non-tumor cell line, human colon epithelial cells CCD 841 CoN (CoN). […] Four serial dilutions (from 12.5 to 100 μM) for each sample were evaluated in triplicate.
(§2) The experimental cell cultures were obtained from the American Type Culture Collection (Rockville, MD, USA). MCF-7 cells (breast cancer cell line), PC-3 and DU-145 (prostate cancer cell lines), and human colon epithelial cells CCD 841 CoN (non-tumoral cell line) were grown in Dulbecco’s modified Eagle’s medium (DMEM) containing 10% FCS, 100 U/mL penicillin, 100 μg/mL streptomycin, and 1 mM glutamine. Cells were seeded into 96 well microtiter plates in 100 μL at a plating density of 5 × 10^3 cells/well. After 24 h incubation at 37 °C under a humidified 5% CO2 atmosphere to allow cell attachment, the cells were treated with different concentrations of drugs and incubated for 72 h under the same conditions. Stock solutions of compounds were prepared in ethanol and the final concentration of this solvent was kept constant at 1%. Control cultures received 1% ethanol alone.
(§3) The sulforhodamine B assay was used according to the method of Skehan et al.. Briefly, the cells were set up at 3 × 10^3 cells per well of a 96 200 μL well, flat-bottomed, microplate. Cells were incubated at 37 °C in a humidified 5% CO2/95% air mixture and treated with the compounds at different concentrations for 72 h. At the end of drug exposure, cells were fixed with 50% trichloroacetic acid at 4 °C. After washing with water, cells were stained with 0.1% sulforhodamine B (Sigma-Aldrich, St. Louis, MO, USA), dissolved in 1% acetic acid (50 μL/well) for 30 min, and subsequently washed with 1% acetic acid to remove unbound stain. Protein-bound stain was solubilized with 100 μL of 10 mM unbuffered Tris base, and the cell density was determined using a […] plate reader (wavelength 540 nm). Values shown are the mean ± SD of three independent experiments in triplicate. The software used to calculate the IC50 values was GraphPad (GraphPad Software, San Diego, CA, USA).

[2] = system: DU-145 prostate cancer cell line; assay: Cell viability, sulforhodamine B assay; format: cell-based; conditions: Homo sapiens, 72 h exposure, dilutions 12.5 to 100 μM, read-out: Cytotoxicity IC50, DU145
Protocol: as §1, §2, §3

[3] = system: MCF-7 breast cancer cell line; assay: Cell viability, sulforhodamine B assay; format: cell-based; conditions: Homo sapiens, MCF7, 72 h exposure, dilutions 12.5 to 100 μM, read-out: Cytotoxicity IC50, MCF-7
Protocol: as §1, §2, §3

[4] = system: PC-3 prostate cancer cell line; assay: Cell viability, sulforhodamine B assay; format: cell-based; conditions: Homo sapiens, 72 h exposure, dilutions 12.5 to 100 μM, read-out: Cytotoxicity IC50, PC-3
Protocol: as §1, §2, §3

[5] = system: panel of cancer cell lines; assay: Cytotoxicity against a panel of cancer cell lines (summary); format: cell-based; conditions: Homo sapiens; summary statement of the conclusions
Protocol: as §1, §3

MCF-7 cells [6] = assay: Mitochondrial membrane permeability, rhodamine 123 flow cytometry; format: cell-based, human; conditions: control treated cells assigned 100%
Description: (§4) Mitochondria play a crucial role in the apoptotic cascade by serving as a convergent center of apoptotic signals originating from both the extrinsic and intrinsic pathways. Changes induced in the mitochondrial membrane potential (MMP) have been reported previously to represent a determinant in the execution of cell death. As polygodial has been described as an inhibitor of mitochondrial ATPase and also as nonionic surfactant. This effect may be determinant in cell death, we has analyzed the effect of compounds 1, 8 and 12 on the mitochondrial membrane potential using flow cytometry with rhodamine 123 stain [24]. […] Similar differences were observed after treatments with compounds 1 and 8 at 100 μM.
(§5) Rhodamine 123, a cationic, voltage-sensitive probe that reversibly accumulates in mitochondria, was used to detect changes in transmembrane mitochondrial membrane potentials. Cells were labelled with 1 μM rhodamine 123 at 37 °C in cell medium for 60 min before terminating the experiment. Cells were detached from the plate, after washing with ice cold PBS, and the samples were analyzed by flow cytometry. Data are expressed in percentage of cells with rhodamine 123 [24].

PC-3 cells [7] = assay: as above; format: cell-based, human; conditions: control treated cells assigned 100%
Description: as §4, §5

CoN cells [8] = assay: as above; format: cell-based, human; conditions: control treated cells assigned 100%
Description: as §4, §5

caspase-3 in CoN cells = assay: Caspase 3 activity assay (colorimetric, DEVD-pNA); format: cell-based, human; conditions: compound 50 μM, control 1% ethanol
Description: (§6) Depletion of mitochondrial membrane potential leads to the release of apoptogenic factors, such as cytochrome c in the apoptotic cascade, and activation of caspases. Then we investigated the effects of our compounds on caspase activity. We focused on caspase-3, which is a main executor of apoptosis playing a central role in its biological processing. We analyzed the effect of treatment with the compound 1, 8 and 12 on caspase-3 activation in normal and cancer cells. […] Compound 1 increased the activity of caspase-3 by 3.4 ± 0.1, 1.4 ± 0.1 and 2.8 ± 0.1 times versus control cells in MCF-7 (black), CoN (white) and PC-3 (gray) cells, respectively. Compound 8 increased the activity of caspase 3 by 2.4 ± 0.1, 1.3 ± 0.2 and 2.7 ± 0.1 times versus control cells in MCF-7 (black), CoN (white) and PC-3 (gray) cells, respectively.
(§7) Caspase activity was measured using a colorimetric assay. Briefly, the cells exposed to compounds were collected by centrifugation at 1000 rpm and lysed with lysis buffer (1% Triton X-100, 0.32 M sucrose, 5 mM EDTA, 10 mM Tris–HCl, pH 8.0, 2 mM dithiothreitol, 1 mM PMSF, […] aprotinin, 1 mg/mL leupeptin). Thereafter, the lysates were transferred to wells in a 96-well microplate and were incubated with DEVD-pNA (final concentration 200 μM) specific for caspase-3/7, at 37 °C for 1 h. The intensity of the developed color was read at 405 nm in a microplate reader (SpectraMax, Winooski, VT, USA). The results are expressed as percentages of the control level.

caspase-3 in PC-3 cells = assay: Caspase 3 activity assay (colorimetric, DEVD-pNA); format: cell-based, human; conditions: PC-3, compound 50 μM; control 1% ethanol
Description: as §6, §7

caspase-3 in MCF-7 cells = assay: Caspase 3 activity assay (colorimetric, DEVD-pNA); format: cell-based, human; conditions: MCF-7, compound 50 μM; control 1% ethanol
Description: as §6, §7

MCF-7 cells [9] = assay: Morphological changes, phase contrast microscope; format: cell-based, human; conditions: MCF-7, 50 μM compound for 24 h
Protocol: (§8) First, the appearance of morphological changes in the cells treated with 50 μM compound for 24 h was analyzed.

PC-3 cells [10] = assay: Morphological changes, phase contrast microscope; format: cell-based, human; conditions: PC-3, 50 μM compound for 24 h
Protocol: as §8

CoN cells [11] = assay: Morphological changes, phase contrast microscope; format: cell-based, human; conditions: 50 μM compound for 24 h
Protocol: as §8

MCF-7 cells [12] = assay: Morphological assessment of cell apoptosis, Hoechst 33342 staining; format: cell-based, human; conditions: MCF-7, 24 h exposure, fluorescence microscope
Protocol: (§9) Nuclear changes in PC-3, MCF-7 and CoN cells were observed under a fluorescence microscope (200×, Figure 4).
(§10) Briefly, on 24-well chamber slides, 1 × 10^4 cells/mL were cultured and exposed to compounds for 24 h. The control group was also exposed to 1% ethanol. The cells were washed twice with phosphate buffer solution, fixed with 3.7% formaldehyde, and washed again with phosphate buffer solution. Following the addition of 1 μM Hoechst 33342 (Sigma-Aldrich, Santiago, Chile), they were reacted in a dark room at room temperature for 30 min. After washing, they were examined under an immunofluorescence microscope (IX 81 model inverted microscope, Olympus, Santiago, Chile).

PC-3 cells [13] = assay: as above; format: cell-based, human; conditions: PC-3, 24 h exposure, fluorescence microscope
Protocol: as §9, §10

CoN cells [14] = assay: as above; format: cell-based, human; conditions: 24 h exposure, fluorescence microscope
Protocol: as §9, §10

Compound	IC50 at 72 h [1]	IC50 [2]	IC50 [3]	IC50 [4]	IC50 [5]	percentage of rhodamine 123 stained cells (MCF-7 cells [6]; MCF-7, compound 50 µM)	percentage of rhodamine 123 stained cells (MCF-7 cells [6]; MCF-7, compound 100 µM)	percentage of rhodamine 123 stained cells (PC-3 cells [7]; PC-3, compound 100 µM)	percentage of rhodamine 123 stained cells (CoN cells [8]; compound 50 µM)	percentage of rhodamine 123 stained cells (CoN cells [8]; compound 100 µM)	increase of caspase-3 activity (caspase-3 in CoN cells)	increase of caspase-3 activity (caspase-3 in PC-3 cells)	increase of caspase-3 activity (caspase-3 in MCF-7 cells)	morphological changes of cells (MCF-7 cells [9])	morphological changes of cells (PC-3 cells [10])	morphological changes of cells (CoN cells [11])	also measured
CC1(C)CCC[C@]2(C)C3=C(CC[C@@H]12)C(=O)OC3 [Compound 4, confertifolin]	> 200 µM	> 200 µM	> 200 µM	> 200 µM	–	–	–	–	–	–	–	–	–	–	–	–	–
CC1(C)CCC[C@]2(C)[C@H](CO)C(CO)=CC[C@@H]12 [Compound 6, 9α-drimendiol]	> 200 µM	> 200 µM	> 200 µM	> 200 µM	–	–	–	–	–	–	–	–	–	–	–	–	–
CC1(C)CCC[C@]2(C)C3=C(CC[C@@H]12)COC3=O [Compound 5, isodrimenin]	> 200 µM	90.5 ± 8.2 µM	> 200 µM	87.6 ± 9.2 µM	< 200 µM	–	–	–	–	–	–	–	–	–	–	–	–
CC(=O)O[C@H]1C[C@H]2C(C)(C)CCC[C@]2(C)[C@@H]2O[C@]12C [Compound 11, (5S,7S,8R,9S,10S)-4,4,8β,10β-tetramethyldecahydronaphtho[8,9-α]oxiren-7-yl acetate]	> 200 µM	> 200 µM	> 200 µM	> 200 µM	–	–	–	–	–	–	–	–	–	–	–	–	–
CC1(C)CCC[C@]2(C)[C@@H](C3OCCO3)C(C=O)=CC[C@@H]12 [Compound 8]	> 200 µM	70.6 ± 5.9 µM	97.1 ± 7.2 µM	65.4 ± 5.5 µM	< 200 µM	93.3% ± 7.1%	72.3 ± 6.4 %	92.8 ± 10.4%	96.0% ± 7.6%	52.3 ± 8.4 %	1.3 ± 0.2 times versus control cells	2.7 ± 0.1 times versus control cells	2.4 ± 0.1 times versus control cells	severely distorted	severely distorted	severely distorted	percentage of rhodamine 123 stained cells (MCF-7 cells [6]; MCF-7, compound 50 µM, listed as Comp. 8): 93.3 ± 7.1%; percentage of rhodamine 123 stained cells (PC-3 cells [7]; PC-3, compound 50 µM, listed as Comp. 8): 136.2 ± 18.5%; percentage of rhodamine 123 stained cells (CoN cells [8]; compound 50 µM, listed as Comp. 8): 96.0 ± 7.6%; nuclear changes after Hoechst 33342 staining (MCF-7 cells [12]): chromatin condensation and karyopyknosis; nuclear changes after Hoechst 33342 staining (PC-3 cells [13]): chromatin condensation and karyopyknosis; nuclear changes after Hoechst 33342 staining (CoN cells [14]): chromatin condensation and karyopyknosis
CC1(C)CCCC2(C)C1CC(=O)C1(C)OC12 (stereo not drawn) [Compound 12, 8α,9α-epoxi-11-nordriman-7-one]	> 200 µM	> 200 µM	88.4 ± 7.1 µM	90.2 ± 8.8 µM	< 200 µM	111.4 ± 8.9%	111.3 ± 9.8%	149.3 ± 21.3%	102.6 ± 9.1%	124.9 ± 9.7%	did not change	did not change	did not change	severely distorted	severely distorted	severely distorted	percentage of rhodamine 123 stained cells (PC-3 cells [7]; PC-3, compound 50 µM): 139.1 ± 12.4%
